Laboratory results from patent publication US20230265151A1, “GIP/GLP1 CO-AGONIST COMPOUNDS” (priority 2020, published 2023).
Read-outs that look alike come from different tables or passages of the source. *1 amine or outer side, *2 acyl side, *3 side chain or, on linkers, in order; H or OH if unused. Where a SMILES comes first, the peptide text is derived from it. Side-chain parts run from the residue outwards. [ ]: non-standard residue; d: D form. The star is where a group is joined. αMePhe(2-F) = C[C@](N)(Cc1ccccc1F)C(=O)O; γGlu = O=C(O)[C@H](CCC(=O)[*:2])N[*:1]; C14 diacid = O=C(O)CCCCCCCCCCCCC(=O)*; αMeY = C[C@](N)(Cc1ccc(O)cc1)C(=O)O; αMeL = CC(C)C[C@](C)(N)C(=O)O; Orn = NCCC[C@H](N)C(=O)O; AEEA = NCCOCCOCC(=O)O; Aib = CC(C)(N)C(=O)O

Experiments:
Format in all cases: cell-based
hGCGR = target: T1, hGCGR (Homo sapiens, UniProt P47871); test: Functional cAMP formation (HTRF) in HEK-293 clonal cells expressing hGCGR, 0.1% bovine casein, without or with 1.0% human serum albumin; conditions: geometric mean
T1 construct: expressed in transfected cells
Method in brief: (§1)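 Cells were stimulated with peptide for 30 min at 37° C, then intracellular cAMP was measured by competitive HTRF (665/620 nm ratio) and converted to nM using a cAMP standard curve. Relative EC50 and Emax came from four-parameter logistic fits of percent maximal response against peptide concentration.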

hGLP-1R = hGLP-1R (Homo sapiens, UniProt P43220); test: Functional cAMP formation (HTRF) in HEK-293 clonal cells expressing hGLP-1R, 0.1% bovine casein, without or with 1.0% human serum albumin; design: expressed in transfected cells; conditions: for EC50: geometric mean
Method in brief: as §1

hGIPR = target: T2, hGIPR (Homo sapiens, UniProt P48546); test: Functional cAMP formation (HTRF) in HEK-293 clonal cells expressing hGIPR, 0.1% bovine casein, without or with 1.0% human serum albumin; conditions: for EC50: geometric mean
T2 construct: expressed in transfected cells
T2 sequence (P48546 22-466): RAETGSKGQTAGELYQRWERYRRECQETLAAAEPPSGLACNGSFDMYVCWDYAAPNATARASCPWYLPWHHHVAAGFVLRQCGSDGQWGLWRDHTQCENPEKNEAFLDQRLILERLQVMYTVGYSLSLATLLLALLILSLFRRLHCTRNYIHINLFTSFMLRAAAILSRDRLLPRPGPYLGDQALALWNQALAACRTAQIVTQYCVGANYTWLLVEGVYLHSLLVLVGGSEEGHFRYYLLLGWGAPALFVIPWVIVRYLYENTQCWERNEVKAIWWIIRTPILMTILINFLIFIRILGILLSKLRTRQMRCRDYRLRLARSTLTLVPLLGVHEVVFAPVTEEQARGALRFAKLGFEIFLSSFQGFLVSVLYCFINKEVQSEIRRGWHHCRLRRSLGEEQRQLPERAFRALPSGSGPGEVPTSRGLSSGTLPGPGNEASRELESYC
Method in brief: as §1

[1] = 0.1% bovine casein and 1.0% human serum albumin, 37° C., read-out: hGCGR EC50, nM (SEM, n)
[2] = cAMP, incubated at 37° C., 0.1% bovine casein (no human serum albumin), read-out: hGCGR EC50, nM (SEM, n)
[3] = HEK293, 0.1% bovine casein and 1.0% human serum albumin, 37° C., percent of maximal response to GLP-1(7-36)NH2, read-out: hGLP-1R Emax, % ± SEM
[4] = cAMP, incubated at 37° C., 0.1% bovine casein (no human serum albumin), read-out: hGLP-1R EC50, nM (SEM, n)
[5] = HEK293, percent of maximal response to GIP(1-42)NH2, 37° C., 0.1% bovine casein, arithmetic mean, read-out: hGIPR Emax, % ± SEM

T1 sequence (P47871 26-477): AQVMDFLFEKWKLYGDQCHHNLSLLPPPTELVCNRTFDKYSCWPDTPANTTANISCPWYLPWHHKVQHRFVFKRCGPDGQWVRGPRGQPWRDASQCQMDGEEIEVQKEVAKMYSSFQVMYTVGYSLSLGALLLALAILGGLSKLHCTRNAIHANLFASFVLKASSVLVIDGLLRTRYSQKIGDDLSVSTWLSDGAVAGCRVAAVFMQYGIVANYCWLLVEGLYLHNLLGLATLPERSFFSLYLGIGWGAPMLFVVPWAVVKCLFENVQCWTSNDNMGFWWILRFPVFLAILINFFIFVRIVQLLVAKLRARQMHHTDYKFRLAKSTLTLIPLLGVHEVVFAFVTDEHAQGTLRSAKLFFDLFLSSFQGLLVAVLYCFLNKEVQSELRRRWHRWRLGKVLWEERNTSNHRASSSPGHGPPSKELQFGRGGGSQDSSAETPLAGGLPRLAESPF
Sequence of hGLP-1R (P43220 24-463): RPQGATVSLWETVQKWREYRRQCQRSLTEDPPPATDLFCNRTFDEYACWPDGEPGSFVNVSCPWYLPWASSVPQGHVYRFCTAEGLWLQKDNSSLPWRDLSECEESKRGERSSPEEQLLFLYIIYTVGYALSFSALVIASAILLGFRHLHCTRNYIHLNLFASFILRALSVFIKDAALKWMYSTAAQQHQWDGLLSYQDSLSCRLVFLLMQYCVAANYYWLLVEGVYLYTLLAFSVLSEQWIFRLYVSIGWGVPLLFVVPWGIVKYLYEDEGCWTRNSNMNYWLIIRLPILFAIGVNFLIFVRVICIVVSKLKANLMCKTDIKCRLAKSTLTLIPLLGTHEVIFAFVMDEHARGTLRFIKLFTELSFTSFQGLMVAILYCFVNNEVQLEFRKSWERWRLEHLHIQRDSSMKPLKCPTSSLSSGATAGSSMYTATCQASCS

## CC[C@H](C)[C@H](NC(=O)[C@H](CCCN)NC(=O)[C@H](CC(=O)O)NC(=O)[C@H](CC(C)C)NC(=O)[C@](C)(CC(C)C)NC(=O)[C@@H](NC(=O)[C@H](CO)NC(=O)[C@H](Cc1ccc(OC)cc1)NC(=O)[C@H](CC(=O)O)NC(=O)[C@H](CO)NC(=O)[C@@H](NC(=O)[C@](C)(Cc1ccccc1F)NC(=O)[C@@H](NC(=O)CNC(=O)[C@H](CCC(=O)O)NC(=O)C(C)(C)NC(=O)[C@@H](N)Cc1ccc(O)cc1)[C@@H](C)O)[C@@H](C)O)[C@@H](C)CC)C(=O)N[C@@H](C)C(=O)N[C@@H](CCC(N)=O)C(=O)NC(C)(C)C(=O)N[C@@H](CCCCNC(=O)COCCOCCNC(=O)COCCOCCNC(=O)CC[C@H](NC(=O)CCCCCCCCCOc1ccc(C(=O)O)cc1)C(=O)O)C(=O)N[C@@H](Cc1ccccc1)C(=O)N[C@H](C(=O)N[C@H](CCC(=O)O)C(=O)N[C@@](C)(Cc1ccc(O)cc1)C(=O)N[C@@H](CC(C)C)C(=O)N[C@H](C(=O)N[C@@H](CCCCNC(=O)COCCOCCNC(=O)COCCOCCNC(=O)CC[C@H](NC(=O)CCCCCCCCCOc1ccc(C(=O)O)cc1)C(=O)O)C(=O)NCC(=O)NCC(=O)N1CCC[C@H]1C(=O)N[C@@H](CO)C(=O)N[C@@H](CO)C(=O)NCC(=O)N[C@@H](C)C(=O)N1CCC[C@H]1C(=O)N1CCC[C@H]1C(=O)N1CCC[C@H]1C(=O)N[C@@H](CO)C(N)=O)[C@@H](C)CC)[C@@H](C)CC [Example 280]
hGCGR; hGCGR EC50, nM (SEM, n), 0.1% bovine casein and 1.0% human serum albumin, 37° C.
  EC50: > 9950 nM
hGCGR; hGCGR EC50, nM (SEM, n), cAMP, 37° C., 0.1% bovine casein (no human serum albumin)
  EC50: > 9950 nM
hGLP-1R; HEK293, read-out: hGLP-1R Emax, % ± SEM, 0.1% bovine casein and 1.0% human serum albumin, 37° C., percent of maximal response to GLP-1(7-36)NH2
  Emax: 105%
hGLP-1R; hGLP-1R EC50, nM (SEM, n), cAMP, 37° C., 0.1% bovine casein (no human serum albumin)
  EC50: 0.346 nM
hGIPR; HEK293, read-out: hGIPR Emax, % ± SEM, 0.1% bovine casein and 1.0% human serum albumin, 37° C., percent of maximal response to GIP(1-42)NH2
  Emax: 88.5%
hGIPR; HEK293, read-out: hGIPR Emax, % ± SEM, cAMP, 37° C., 0.1% bovine casein, percent of maximal response to GIP(1-42)NH2, arithmetic mean
  Emax: 105%
hGIPR; hGIPR EC50, nM (SEM, n), 0.1% bovine casein and 1.0% human serum albumin, 37° C.
  EC50: 4.84 nM
hGIPR; hGIPR EC50, nM (SEM, n), cAMP, 37° C., 0.1% bovine casein (no human serum albumin)
  EC50: 0.0229 nM

## CC[C@H](C)[C@H](NC(=O)[C@H](CC(C)C)NC(=O)[C@](C)(Cc1ccc(O)cc1)NC(=O)[C@@H](CCC(=O)O)NC(=O)[C@@H](NC(=O)[C@H](Cc1ccccc1)NC(=O)CNC(=O)C(C)(C)NC(=O)[C@H](CCC(N)=O)NC(=O)[C@H](C)NC(=O)[C@H](CCCCNC(=O)COCCOCCNC(=O)COCCOCCNC(=O)CC[C@H](NC(=O)CCCCCCCCCCCCC(=O)O)C(=O)O)NC(=O)[C@H](CCCN)NC(=O)[C@H](CC(=O)O)NC(=O)[C@H](CC(C)C)NC(=O)[C@](C)(CC(C)C)NC(=O)[C@@H](NC(=O)[C@H](CO)NC(=O)[C@H](Cc1ccncc1)NC(=O)[C@H](CC(=O)O)NC(=O)[C@H](CO)NC(=O)[C@@H](NC(=O)[C@](C)(Cc1ccccc1F)NC(=O)[C@@H](NC(=O)CNC(=O)[C@H](CCC(=O)O)NC(=O)C(C)(C)NC(=O)[C@@H](N)Cc1ccc(O)cc1)[C@@H](C)O)[C@@H](C)O)[C@@H](C)CC)[C@@H](C)CC)C(=O)N[C@@H](CCC(=O)O)C(=O)NCC(=O)NCC(=O)N[C@@H](CCCCNC(=O)COCCOCCNC(=O)COCCOCCNC(=O)CC[C@H](NC(=O)CCCCCCCCCCCCC(=O)O)C(=O)O)C(=O)N[C@@H](CO)C(=O)N[C@@H](CO)C(=O)NCC(=O)N[C@@H](C)C(=O)N1CCC[C@H]1C(=O)N1CCC[C@H]1C(=O)N1CCC[C@H]1C(=O)N[C@@H](CO)C(N)=O [Example 103]
hGCGR; [1]
  EC50: > 9950 nM
hGCGR; [2]
  EC50: > 9950 nM
hGLP-1R; [3]
  Emax: 96.9%
hGLP-1R; [4]
  EC50: 2.1 nM
hGIPR; HEK293, 0.1% bovine casein and 1.0% human serum albumin, 37° C., percent of maximal response to GIP(1-42)NH2, read-out: hGIPR Emax, % ± SEM
  Emax: 94.2%
hGIPR; [5]
  Emax: 92.8%
hGIPR; cAMP, incubated at 37° C., 0.1% bovine casein (no human serum albumin), read-out: hGIPR EC50, nM (SEM, n)
  EC50: 0.0305 nM

## CC[C@H](C)[C@H](NC(=O)[C@H](CC(C)C)NC(=O)[C@](C)(Cc1ccc(O)cc1)NC(=O)[C@@H](CCC(=O)O)NC(=O)[C@@H](NC(=O)[C@H](Cc1ccccc1)NC(=O)[C@H](CCC(=O)O)NC(=O)C(C)(C)NC(=O)[C@H](CCC(N)=O)NC(=O)[C@H](C)NC(=O)[C@H](CCCCNC(=O)COCCOCCNC(=O)COCCOCCNC(=O)CC[C@H](NC(=O)CCCCCCCCCCCCC(=O)O)C(=O)O)NC(=O)[C@H](CCCN)NC(=O)[C@H](CC(=O)O)NC(=O)[C@H](CC(C)C)NC(=O)[C@](C)(CC(C)C)NC(=O)[C@@H](NC(=O)[C@H](CO)NC(=O)[C@@H](NC(=O)[C@H](CC(=O)O)NC(=O)[C@H](CO)NC(=O)[C@@H](NC(=O)[C@](C)(Cc1ccccc1F)NC(=O)[C@@H](NC(=O)CNC(=O)[C@H](CCC(=O)O)NC(=O)C(C)(C)NC(=O)[C@@H](N)Cc1ccc(O)cc1)[C@@H](C)O)[C@@H](C)O)C(C)C)[C@@H](C)CC)[C@@H](C)CC)C(=O)N[C@@H](CCC(=O)O)C(=O)NCC(=O)NCC(=O)N[C@@H](CCCCNC(=O)COCCOCCNC(=O)COCCOCCNC(=O)CC[C@H](NC(=O)CCCCCCCCCCCCC(=O)O)C(=O)O)C(=O)N[C@@H](CO)C(=O)N[C@@H](CO)C(=O)NCC(=O)N[C@@H](C)C(=O)N1CCC[C@H]1C(=O)N1CCC[C@H]1C(=O)N1CCC[C@H]1C(=O)N[C@@H](CO)C(N)=O [Example 90] (H-Y[Aib]EGT[αMePhe(2-F)]TSDVSI[αMeL]LD[Orn]K([AEEA-AEEA-γGlu-C14 diacid])AQ[Aib]EFI[dE][αMeY]LIEGGK([AEEA-AEEA-γGlu-C14 diacid])SSGAPPPS-NH2)
hGCGR; [1]
  EC50: > 9950 nM
hGCGR; [2]
  EC50: > 9950 nM
hGLP-1R; 0.1% bovine casein and 1.0% human serum albumin, 37° C., read-out: hGLP-1R EC50, nM (SEM, n)
  EC50: 23.4 nM
hGLP-1R; [3]
  Emax: 96.6%
hGLP-1R; HEK293, percent of maximal response to GLP-1(7-36)NH2, 37° C., 0.1% bovine casein, arithmetic mean, read-out: hGLP-1R Emax, % ± SEM
  Emax: 96.2 ± 1.5%
hGLP-1R; [4]
  EC50: 0.221 nM
hGIPR; [5]
  Emax: 93 ± 3.31%

## CC[C@H](C)[C@H](NC(=O)[C@H](CC(C)C)NC(=O)[C@](C)(Cc1ccc(O)cc1)NC(=O)[C@H](CCCCNC(=O)COCCOCCNC(=O)COCCOCCNC(=O)CC[C@H](NC(=O)CCCCCCCCCCCCC(=O)O)C(=O)O)NC(=O)[C@@H](NC(=O)[C@H](Cc1ccccc1)NC(=O)[C@H](CCC(=O)O)NC(=O)C(C)(C)NC(=O)[C@H](CCC(N)=O)NC(=O)[C@H](C)NC(=O)[C@H](CCCCNC(=O)COCCOCCNC(=O)COCCOCCNC(=O)CC[C@H](NC(=O)CCCCCCCCCCCCC(=O)O)C(=O)O)NC(=O)[C@H](CCCN)NC(=O)[C@H](CC(=O)O)NC(=O)[C@H](CC(C)C)NC(=O)[C@](C)(CC(C)C)NC(=O)[C@@H](NC(=O)C(C)(C)NC(=O)[C@@H](NC(=O)[C@H](CC(=O)O)NC(=O)[C@H](CO)NC(=O)[C@@H](NC(=O)[C@](C)(Cc1ccccc1)NC(=O)[C@@H](NC(=O)CNC(=O)[C@H](CCC(=O)O)NC(=O)C(C)(C)NC(=O)[C@@H](N)Cc1ccc(O)cc1)[C@@H](C)O)[C@@H](C)O)C(C)C)[C@@H](C)CC)[C@@H](C)CC)C(=O)N[C@@H](CCC(=O)O)C(=O)NCC(=O)NCC(=O)N1CCC[C@H]1C(=O)N[C@@H](CO)C(=O)N[C@@H](CO)C(=O)NCC(=O)N[C@@H](C)C(=O)N1CCC[C@H]1C(=O)N1CCC[C@H]1C(=O)N1CCC[C@H]1C(=O)N[C@@H](CO)C(N)=O [Example 182]
hGCGR; hGCGR EC50, nM (SEM, n), cAMP, incubated at 37° C., 0.1% bovine casein (no human serum albumin)
  EC50: > 9950 nM
hGLP-1R; HEK293, read-out: hGLP-1R Emax, % ± SEM, percent of maximal response to GLP-1(7-36)NH2, 37° C., 0.1% bovine casein, arithmetic mean
  Emax: 96.9%
hGLP-1R; hGLP-1R EC50, nM (SEM, n), cAMP, incubated at 37° C., 0.1% bovine casein (no human serum albumin)
  EC50: 0.185 nM
hGIPR; HEK293, read-out: hGIPR Emax, % ± SEM, percent of maximal response to GIP(1-42)NH2, 37° C., 0.1% bovine casein, arithmetic mean
  Emax: 89%
